Where two headings read alike, the source gives them in different places.

For data set [1], the system named is CRC organoids engrafted in swine small intestine tissue. The experiment in a line: ex vivo CRC organoid-in-intestine platform, GFP+ tumor cells by flow cytometry. In kind it is cell-based. To be noted: for IC50: System: Tissue (pig ex vivo colorectal cancer platform), 24 hours drug treatment.
The subject of data set [2] is Caco2 cells. Kind of data set: CellTiter-Glo Luminescent cell viability assay. In kind it is cell-based. To be noted: Homo sapiens, Caco-2; System: Cell (Caco2). For orientation: In ATP-based viability assays light output follows the ATP content of the culture.
For data set [3], the system named is HT29 cells. Kind of data set: CellTiter-Glo Luminescent cell viability assay. In kind it is cell-based. The following applies: Homo sapiens, HT-29; System: Cell (HT29).
In data set [4] the test system is Colo320DM cells. The experiment in a line: CellTiter-Glo Luminescent cell viability assay. Type of data set: cell-based. To be noted: System: Cell (Colo320DM).
Data set [5] deals with HCT15 cells. Kind of data set: CellTiter-Glo Luminescent cell viability assay. Type of data set: cell-based. The following applies: System: Cell (HCT15).
Data set [6] deals with CRC organoids (APC−/TP53−/SMAD4− triple knockout). Kind of data set: CellTiter-Glo cytotoxicity assay on CRISPR-engineered CRC organoids. To be noted: read-out: IC50 (uM) ± SD.
Data set [7] has as its target P-gp (Homo sapiens, UniProt P08183). To be noted: previous work; cited from earlier work.

P-gp, sequence (P08183 whole entry): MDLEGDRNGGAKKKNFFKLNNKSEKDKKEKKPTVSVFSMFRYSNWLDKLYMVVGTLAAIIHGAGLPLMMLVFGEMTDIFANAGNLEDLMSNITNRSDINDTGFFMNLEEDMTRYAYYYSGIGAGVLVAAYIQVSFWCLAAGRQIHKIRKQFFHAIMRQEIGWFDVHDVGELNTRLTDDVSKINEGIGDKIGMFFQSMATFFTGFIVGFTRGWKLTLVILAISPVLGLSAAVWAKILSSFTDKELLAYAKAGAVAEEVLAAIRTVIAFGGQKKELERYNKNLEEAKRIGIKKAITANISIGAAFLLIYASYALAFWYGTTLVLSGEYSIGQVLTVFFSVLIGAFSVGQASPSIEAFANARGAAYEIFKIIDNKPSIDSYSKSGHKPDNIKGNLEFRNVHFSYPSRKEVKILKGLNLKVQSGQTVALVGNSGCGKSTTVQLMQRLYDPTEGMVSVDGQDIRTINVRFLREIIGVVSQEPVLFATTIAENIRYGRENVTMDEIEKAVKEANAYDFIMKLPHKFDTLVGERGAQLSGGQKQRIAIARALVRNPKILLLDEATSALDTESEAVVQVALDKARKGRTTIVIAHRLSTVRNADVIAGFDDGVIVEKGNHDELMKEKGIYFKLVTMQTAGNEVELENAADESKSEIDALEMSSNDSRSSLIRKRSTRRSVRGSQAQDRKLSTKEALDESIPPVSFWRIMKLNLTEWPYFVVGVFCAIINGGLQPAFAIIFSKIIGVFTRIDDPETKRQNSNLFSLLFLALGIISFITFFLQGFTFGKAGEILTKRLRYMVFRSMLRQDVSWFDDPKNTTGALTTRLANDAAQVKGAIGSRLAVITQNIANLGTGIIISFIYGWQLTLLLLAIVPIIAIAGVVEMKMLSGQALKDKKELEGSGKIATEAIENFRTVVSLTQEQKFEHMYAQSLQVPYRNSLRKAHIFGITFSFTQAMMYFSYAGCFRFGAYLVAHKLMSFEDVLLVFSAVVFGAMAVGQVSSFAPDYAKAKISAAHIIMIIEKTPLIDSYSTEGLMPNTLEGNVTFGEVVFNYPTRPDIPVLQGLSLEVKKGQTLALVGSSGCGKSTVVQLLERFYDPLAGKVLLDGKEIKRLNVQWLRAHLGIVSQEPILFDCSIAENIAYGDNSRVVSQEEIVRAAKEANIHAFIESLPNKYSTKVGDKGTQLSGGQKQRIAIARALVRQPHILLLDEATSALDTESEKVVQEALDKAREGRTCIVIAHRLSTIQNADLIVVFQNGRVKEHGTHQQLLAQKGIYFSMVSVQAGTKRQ

The IC50 is the midpoint of a concentration-inhibition curve. As to `COc1cccc2c1C(=O)c1c(O)c3c(c(O)c1C2=O)C[C@@](O)(C(=O)CO)C[C@@H]3O[C@H]1C[C@H](N)[C@H](O)[C@H](C)O1` [Doxirubicine, doxorubicin], the IC50 in data set [1] (Sus scrofa) is 0.739 ± 0.082 µM; in data set [2] it was 2.85 ± 0.712 µM; in data set [3], 3.88 ± 2.13 µM; in data set [4] (Homo sapiens, COLO 320DM), 6.99 ± 1.23 µM; in data set [5] (Homo sapiens, HCT-15), 1.51 ± 0.226 µM; in data set [6] (Sus scrofa) it was 10.1 ± 2.33 µM.

For the compound `CS(=O)(=O)CCNCc1ccc(-c2ccc3ncnc(Nc4ccc(OCc5cccc(F)c5)c(Cl)c4)c3c2)o1` [Lapatinib, lapatinib], the values for the IC50 in data set [1] (Sus scrofa) and in data set [6] (Sus scrofa) were 0.499 ± 0.087 µM and 0.39 ± 0.21 µM, respectively.

Take `O=C1[O][Pt]2([NH][C@@H]3CCCC[C@H]3[NH]2)[O]C1=O` [Oxiliplatin, oxaliplatin]: the IC50 stood at 8.61 ± 3.38 µM in data set [1], 10.5 ± 1.71 µM in data set [4], 15.5 ± 4.99 µM in data set [5] and 18 ± 4.72 µM in data set [6] (System: Organoid (without transplantation into tissue)).

Take vitamin A: the “potency of irinotecan in combination with predicted P-gp modulator” value in data set [1] (ex vivo CRC platform, FIGS. 8B-8C, one-way ANOVA p<0.05) is “significantly increased the potency irinotecan”. Further, the “P-gp inhibition and drug uptake” value in data set [7] is “inhibit P-gp and increase drug uptake”.

The record behind these values is patent US20230101335A1, “EX VIVO TISSUE EXPLANT AND GRAFT PLATFORM AND USES THEREOF” (Massachusetts Institute of Technology, priority 2021, published 2023).
